Earlier results in patent US9333228B2, “Nutritional supplement for recovery, repair, and maintenance” (Top Doctors Labs, LLC, priority 2010, dated 2016).

Test system: osteoporotic fractures
Conditions: human clinical studies; vitamin K2 as MK-4

CC(C)=CCC/C(C)=C/CC/C(C)=C/CC/C(C)=C/CC1=C(C)C(=O)c2ccccc2C1=O [vitamin K2, menatetranone]
lower risk of osteoporotic fractures: up to 81%
